Results on five molecules are retold here after US11130793B2, “GLP-1/GLP-2 dual agonists” (Zealand Pharma A/S, priority 2016, dated 2021).

For assay [1], the target named is T1, human GLP-2 receptor (Homo sapiens, UniProt O95838, D470N).
T1 sequence (O95838 1-553 D470N): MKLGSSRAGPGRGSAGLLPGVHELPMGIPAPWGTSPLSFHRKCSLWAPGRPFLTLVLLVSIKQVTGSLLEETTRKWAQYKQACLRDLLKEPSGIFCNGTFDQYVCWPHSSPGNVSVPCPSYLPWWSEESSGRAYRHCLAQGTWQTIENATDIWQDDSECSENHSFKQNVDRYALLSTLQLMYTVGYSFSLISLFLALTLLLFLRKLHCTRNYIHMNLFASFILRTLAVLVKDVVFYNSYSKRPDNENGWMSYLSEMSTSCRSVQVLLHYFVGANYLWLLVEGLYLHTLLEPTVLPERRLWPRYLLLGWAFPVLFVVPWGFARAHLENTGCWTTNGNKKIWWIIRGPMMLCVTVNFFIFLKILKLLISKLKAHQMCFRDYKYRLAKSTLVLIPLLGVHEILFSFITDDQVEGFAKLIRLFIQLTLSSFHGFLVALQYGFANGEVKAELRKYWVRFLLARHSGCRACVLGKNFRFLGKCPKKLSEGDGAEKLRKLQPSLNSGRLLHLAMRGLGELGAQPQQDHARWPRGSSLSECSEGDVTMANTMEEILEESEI
The experiment in a line: GLP-2 receptor potency assay (cAMP AlphaScreen, HEK293 cells stably expressing GLP-2R). The class given is cell-based. Particulars: cAMP response, HEK293 cells expressing human GLP-2R. From the text: (§1) One useful in vitro assay for measuring GLP-1 and GLP-2 receptor activity is quantitation of cAMP, i.e. 3′-5′-cyclic adenosine monophosphate, which is a second messenger essential in many biological processes, and one of the most ubiquitous mechanisms for regulating cellular functions. […] Test compounds eliciting an increase in the intracellular level of cAMP can be tested in these assays, and the response normalized relative to a positive and negative control (vehicle) to calculate the EC50 and maximal response from the concentration response curve using the 4-parameter logistic (4PL) nonlinear model for curve fitting.
The hGLP2-R was purchased from MRC-geneservice, Babraham, Cambridge as an Image clone: 5363415 (11924-I17). For subcloning into a mammalian expression vector, primers for subcloning were obtained from DNA-Technology, Risskov, Denmark. The 5′ and 3′ primers used for the PCR reaction include terminal restriction sites for cloning and the context of the 5′ primer is modified to a Kozak consensus without changing the sequence of the product encoded by the ORF. A standard PCR reaction was run using Image clone 5363415 (11924-117) as a template with the above mentioned primers and Polymerase Herculase II Fusion in a total vol. of 50 μl. The generated PCR product was purified using GFX PCR and Gel band purification kit, digested with restriction enzymes and cloned into the mammalian expression vector using Rapid DNA Ligation Kit. Ligation reaction was transformed to XL10 Gold Ultracompetent cells and colonies were picked for DNA production using Endofree Plasmid maxi kit. Subsequent sequence analysis was conducted by MWG Eurofins, Germany.
HEK293 cells were transfected using the Lipofectamine PLUS transfection method. The day before transfection, HEK293 cells were seeded in two T75 flasks at a density of 2×10^6 cells/T75 flask in cell culturing medium without antibiotics. On the day of transfection, cells were washed with 1×DPBS and medium was replaced with Optimem to a volume of 5 mL/T75 flask before addition of Lipofectamine-plasmid complexes were added gently and drop wise to the cells in T75 flasks and replaced with growth medium after 3 hours and again to growth medium supplemented with 500 μg/mL G418 after 24 hours. Following 4 weeks in G418 selection, clones were picked and tested in a functional GLP-2 receptor potency assay as described below.
(§2) The cAMP AlphaScreen assay from Perkin Elmer was used to quantitate the cAMP response to activation of the GLP1 and GLP2 receptor, respectively. […] Data from test compounds eliciting an increase in the intracellular level of cAMP were normalized relative to the positive and negative control (vehicle) to calculate the EC50 and maximal response from the concentration response curve.
Background: In Alpha technology, singlet oxygen from a donor bead excites a nearby acceptor bead.

Assay [2] addresses T2, human GLP-1 receptor (Homo sapiens, UniProt P43220).
T2 construct: expressed in transfected cells
The assay is described as follows: GLP-1 receptor potency assay (cAMP AlphaScreen, HEK293 cells stably expressing GLP-1R). The class given is cell-based. The conditions noted are these: cAMP response, HEK293 cells expressing human GLP-1R; read-out: EC50 GLP-1.
Source text: as §1
The cDNA encoding the human glucagon-like peptide 1 receptor (GLP-1R) (primary accession number P43220) was cloned from the cDNA BC112126 (MGC:138331/IMAGE:8327594). The DNA encoding the GLP-1-R was amplified by PCR using primers encoding terminal restriction sites for subcloning. The 5′-end primers additionally encoded a near Kozak consensus sequence to ensure efficient translation. […] The PCR products encoding the GLP-1-R were subcloned into a mammalian expression vector containing a neomycin (G418) resistance marker. The mammalian expression vectors encoding the GLP-1-R were transfected into HEK293 cells by a standard calcium phosphate transfection method. 48 hours post-transfection, cells were seeded for limited dilution cloning and selected with 1 mg/ml G418 in the culture medium. Following 3 weeks in G418 selection clones were picked and tested in a functional GLP-1 receptor potency assay as described below.
as §2

Molecules are shown by their SMILES. Square brackets hold non-standard residues; d marks the D form. Peptide text beside a SMILES is read from it. Aib = CC(C)(N)C(=O)O

T2 sequence (P43220 24-463): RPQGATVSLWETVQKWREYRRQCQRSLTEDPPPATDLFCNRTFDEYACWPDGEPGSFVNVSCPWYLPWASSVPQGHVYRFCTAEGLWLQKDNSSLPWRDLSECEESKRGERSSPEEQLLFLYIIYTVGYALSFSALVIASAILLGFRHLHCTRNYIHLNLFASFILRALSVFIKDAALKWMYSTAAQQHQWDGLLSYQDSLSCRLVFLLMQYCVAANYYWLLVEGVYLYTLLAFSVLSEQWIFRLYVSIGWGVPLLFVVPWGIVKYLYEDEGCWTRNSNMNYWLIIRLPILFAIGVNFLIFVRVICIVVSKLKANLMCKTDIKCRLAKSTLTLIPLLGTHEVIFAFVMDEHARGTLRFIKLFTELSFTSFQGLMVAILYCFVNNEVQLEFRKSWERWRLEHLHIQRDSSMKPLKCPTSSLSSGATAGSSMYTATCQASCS

A word on the EC50: it is the concentration that produces a half-maximal response. For `CC[C@H](C)[C@H](NC(=O)[C@H](Cc1ccccc1)NC(=O)[C@H](CC(=O)O)NC(=O)[C@H](CCCNC(=N)N)NC(=O)[C@H](C)NC(=O)[C@H](C)NC(=O)[C@H](CCC(N)=O)NC(=O)[C@H](CCC(=O)O)NC(=O)[C@H](CC(=O)O)NC(=O)[C@H](CC(C)C)NC(=O)[C@@H](NC(=O)[C@@H](NC(=O)[C@H](C)NC(=O)[C@H](CC(C)C)NC(=O)[C@H](CCC(=O)O)NC(=O)[C@H](CO)NC(=O)[C@@H](NC(=O)[C@H](Cc1ccccc1)NC(=O)[C@@H](NC(=O)CNC(=O)[C@H](CCC(=O)O)NC(=O)C(C)(C)NC(=O)[C@@H](N)Cc1c[nH]cn1)[C@@H](C)O)[C@@H](C)O)[C@@H](C)O)[C@@H](C)CC)C(=O)N[C@@H](C)C(=O)N[C@@H](Cc1c[nH]c2ccccc12)C(=O)N[C@@H](CC(C)C)C(=O)N[C@H](C(=O)N[C@@H](CCCCN)C(=O)N[C@@H](Cc1c[nH]cn1)C(=O)N[C@@H](CCCCN)C(=O)N[C@H](C(=O)N[C@H](C(=O)N[C@@H](CC(=O)O)C(=O)O)[C@@H](C)O)[C@@H](C)CC)[C@@H](C)CC` [Compound 16] (H-H[Aib]EGTFTSELATILDEQAARDFIAWLIKHKITD-OH), the results for the EC50 in assay [1] and in assay [2] were 26 pM and 6 pM, respectively.

In the case of `CC[C@H](C)[C@H](NC(=O)[C@H](Cc1ccccc1)NC(=O)[C@H](CC(=O)O)NC(=O)[C@H](CCCNC(=N)N)NC(=O)[C@H](C)NC(=O)[C@H](C)NC(=O)[C@H](CCC(N)=O)NC(=O)[C@H](CCC(=O)O)NC(=O)[C@H](CC(=O)O)NC(=O)[C@H](CC(C)C)NC(=O)[C@@H](NC(=O)[C@@H](NC(=O)[C@H](C)NC(=O)[C@H](CC(C)C)NC(=O)[C@H](CCC(=O)O)NC(=O)[C@H](CO)NC(=O)[C@@H](NC(=O)[C@H](Cc1ccccc1)NC(=O)[C@@H](NC(=O)CNC(=O)[C@H](CCC(=O)O)NC(=O)C(C)(C)NC(=O)[C@@H](N)Cc1c[nH]cn1)[C@@H](C)O)[C@@H](C)O)[C@@H](C)O)[C@@H](C)CC)C(=O)N[C@@H](C)C(=O)N[C@@H](Cc1c[nH]c2ccccc12)C(=O)N[C@@H](CC(C)C)C(=O)N[C@H](C(=O)N[C@@H](CCCNC(=N)N)C(=O)N[C@@H](Cc1c[nH]cn1)C(=O)N[C@@H](CCCCN)C(=O)N[C@H](C(=O)N[C@H](C(=O)N[C@@H](CC(=O)O)C(=O)O)[C@@H](C)O)[C@@H](C)CC)[C@@H](C)CC` [Compound 17] (H-H[Aib]EGTFTSELATILDEQAARDFIAWLIRHKITD-OH), the EC50 was 66 pM in assay [1] and 6 pM in assay [2].

For `CC[C@H](C)[C@H](NC(=O)[C@H](Cc1ccccc1)NC(=O)[C@H](CC(=O)O)NC(=O)[C@H](CCCNC(=N)N)NC(=O)[C@H](C)NC(=O)[C@H](C)NC(=O)[C@H](CCC(N)=O)NC(=O)[C@H](CCC(=O)O)NC(=O)[C@H](CC(=O)O)NC(=O)[C@H](CC(C)C)NC(=O)[C@@H](NC(=O)[C@@H](NC(=O)[C@H](C)NC(=O)[C@H](CC(C)C)NC(=O)[C@H](CCC(=O)O)NC(=O)[C@H](CO)NC(=O)[C@@H](NC(=O)[C@H](Cc1ccccc1)NC(=O)[C@@H](NC(=O)CNC(=O)[C@H](CCC(=O)O)NC(=O)C(C)(C)NC(=O)[C@@H](N)Cc1c[nH]cn1)[C@@H](C)O)[C@@H](C)O)[C@@H](C)O)[C@@H](C)CC)C(=O)N[C@@H](C)C(=O)N[C@@H](Cc1c[nH]c2ccccc12)C(=O)N[C@@H](CC(C)C)C(=O)N[C@H](C(=O)N[C@@H](CO)C(=O)N[C@@H](Cc1c[nH]cn1)C(=O)N[C@@H](CCCCN)C(=O)N[C@H](C(=O)N[C@H](C(=O)N[C@@H](CC(=O)O)C(=O)O)[C@@H](C)O)[C@@H](C)CC)[C@@H](C)CC` [Compound 18] (H-H[Aib]EGTFTSELATILDEQAARDFIAWLISHKITD-OH), the EC50 in assay [1] is 54 pM; in assay [2], 6 pM.

For `CC[C@H](C)[C@H](NC(=O)[C@H](CC(C)C)NC(=O)[C@H](Cc1c[nH]c2ccccc12)NC(=O)[C@H](C)NC(=O)[C@@H](NC(=O)[C@H](Cc1ccccc1)NC(=O)[C@H](CC(=O)O)NC(=O)[C@H](CCCNC(=N)N)NC(=O)[C@H](C)NC(=O)[C@H](C)NC(=O)[C@H](CCC(N)=O)NC(=O)[C@H](CCC(=O)O)NC(=O)[C@H](CC(=O)O)NC(=O)[C@H](CC(C)C)NC(=O)[C@@H](NC(=O)[C@@H](NC(=O)[C@H](C)NC(=O)[C@H](CC(C)C)NC(=O)[C@H](CCC(=O)O)NC(=O)[C@H](CO)NC(=O)[C@@H](NC(=O)[C@H](Cc1ccccc1)NC(=O)[C@@H](NC(=O)CNC(=O)[C@H](CCC(=O)O)NC(=O)C(C)(C)NC(=O)[C@@H](N)Cc1c[nH]cn1)[C@@H](C)O)[C@@H](C)O)[C@@H](C)O)[C@@H](C)CC)[C@@H](C)CC)C(=O)N[C@@H](C)C(=O)N[C@@H](CCC(N)=O)C(=O)N[C@@H](CCCCN)C(=O)N[C@H](C(=O)N[C@H](C(=O)N[C@@H](CC(=O)O)C(=O)O)[C@@H](C)O)[C@@H](C)CC` [Compound 19] (H-H[Aib]EGTFTSELATILDEQAARDFIAWLIAQKITD-OH), the concentration giving a half-maximal response (EC50) in assay [1] is 150 pM; in assay [2], 5 pM.

Take `CC[C@H](C)[C@H](NC(=O)[C@H](CC(C)C)NC(=O)[C@H](Cc1c[nH]c2ccccc12)NC(=O)[C@H](C)NC(=O)[C@@H](NC(=O)[C@H](Cc1ccccc1)NC(=O)[C@H](CC(=O)O)NC(=O)[C@H](CCCNC(=N)N)NC(=O)[C@H](C)NC(=O)[C@H](C)NC(=O)[C@H](CCC(N)=O)NC(=O)[C@H](CCC(=O)O)NC(=O)[C@H](CC(=O)O)NC(=O)[C@H](CC(C)C)NC(=O)[C@@H](NC(=O)[C@@H](NC(=O)[C@H](C)NC(=O)[C@H](CC(C)C)NC(=O)[C@H](CCC(=O)O)NC(=O)[C@H](CO)NC(=O)[C@@H](NC(=O)[C@H](Cc1ccccc1)NC(=O)[C@@H](NC(=O)CNC(=O)[C@H](CCC(=O)O)NC(=O)C(C)(C)NC(=O)[C@@H](N)Cc1c[nH]cn1)[C@@H](C)O)[C@@H](C)O)[C@@H](C)O)[C@@H](C)CC)[C@@H](C)CC)C(=O)N[C@@H](C)C(=O)N[C@@H](Cc1ccc(O)cc1)C(=O)N[C@@H](CCCCN)C(=O)N[C@H](C(=O)N[C@H](C(=O)N[C@@H](CC(=O)O)C(=O)O)[C@@H](C)O)[C@@H](C)CC` [Compound 20] (H-H[Aib]EGTFTSELATILDEQAARDFIAWLIAYKITD-OH): the EC50 came out at 260 pM in assay [1] and 12 pM in assay [2].
